Consider 20 compounds from patent publication US20230257372A1 (CHONG KUN DANG PHARMACEUTICAL CORP., priority 2020, published 2023).

Where two headings read alike, the source gives them in different places.

One assay addresses T1, human recombinant HDAC6 (Homo sapiens, UniProt Q9UBN7).
T1 construct: purchased Calbiochem Inc. 382180
T1 sequence (Q9UBN7 1-1215): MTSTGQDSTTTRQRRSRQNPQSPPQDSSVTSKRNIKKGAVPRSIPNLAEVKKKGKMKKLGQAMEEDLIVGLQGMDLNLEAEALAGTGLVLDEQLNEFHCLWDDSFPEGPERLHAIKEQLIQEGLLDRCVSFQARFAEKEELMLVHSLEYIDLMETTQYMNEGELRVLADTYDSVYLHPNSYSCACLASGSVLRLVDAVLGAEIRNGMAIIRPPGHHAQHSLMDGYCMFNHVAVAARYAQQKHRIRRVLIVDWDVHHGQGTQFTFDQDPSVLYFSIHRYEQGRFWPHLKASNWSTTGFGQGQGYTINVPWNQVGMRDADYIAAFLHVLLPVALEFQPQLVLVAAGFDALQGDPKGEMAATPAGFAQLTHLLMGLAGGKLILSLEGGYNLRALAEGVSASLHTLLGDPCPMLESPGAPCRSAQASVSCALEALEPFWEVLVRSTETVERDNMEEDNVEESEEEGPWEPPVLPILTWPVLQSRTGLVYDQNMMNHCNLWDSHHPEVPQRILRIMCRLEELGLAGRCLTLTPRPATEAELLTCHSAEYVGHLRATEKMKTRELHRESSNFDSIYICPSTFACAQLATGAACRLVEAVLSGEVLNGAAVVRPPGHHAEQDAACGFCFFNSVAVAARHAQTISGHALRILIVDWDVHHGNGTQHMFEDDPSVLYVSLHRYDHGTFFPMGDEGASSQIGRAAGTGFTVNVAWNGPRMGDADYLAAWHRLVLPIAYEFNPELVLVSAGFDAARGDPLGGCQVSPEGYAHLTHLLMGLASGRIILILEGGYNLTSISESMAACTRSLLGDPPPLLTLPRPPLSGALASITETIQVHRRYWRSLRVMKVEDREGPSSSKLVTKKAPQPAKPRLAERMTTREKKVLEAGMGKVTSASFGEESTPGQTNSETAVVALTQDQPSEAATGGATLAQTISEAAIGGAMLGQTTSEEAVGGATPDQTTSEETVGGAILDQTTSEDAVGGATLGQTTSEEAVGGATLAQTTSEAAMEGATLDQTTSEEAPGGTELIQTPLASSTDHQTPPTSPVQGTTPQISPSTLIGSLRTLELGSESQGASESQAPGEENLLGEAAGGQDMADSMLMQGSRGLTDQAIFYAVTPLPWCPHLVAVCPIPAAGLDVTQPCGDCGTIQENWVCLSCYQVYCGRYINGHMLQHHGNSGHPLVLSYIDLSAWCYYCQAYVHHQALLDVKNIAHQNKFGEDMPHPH
Briefly: HDAC6 enzyme activity inhibition (HDAC Fluorimetric Drug Discovery Kit). The format is biochemical. The method in brief:
(§1)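 Fluorimetric deacetylase read-out. 5-fold compound dilutions; […] enzyme, 10 μM substrate; 30° C, 60 min; developer 30 min.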

A further assay has as its target T2, human recombinant HDAC1 (Homo sapiens, UniProt Q13547).
T2 construct: purchased Enzo Life Science, Inc. BML-SE456
The assay is described as follows: HDAC1 enzyme activity inhibition (HDAC Fluorimetric Drug Discovery Kit). The format is biochemical. The note with it: read-out: HDAC1. In outline:
as §1

[1] abbreviates: human recombinant HDAC6, IC50 calculated with GraphPad Prism.
Where [2] appears, read: human recombinant HDAC1, IC50 calculated with GraphPad Prism.
[3] abbreviates: human recombinant HDAC6, same protocol as HDAC1.
[4] abbreviates: human recombinant HDAC1, Fluor de Lys substrate, 30° C. 60 minutes.

T2 sequence (Q13547 whole entry): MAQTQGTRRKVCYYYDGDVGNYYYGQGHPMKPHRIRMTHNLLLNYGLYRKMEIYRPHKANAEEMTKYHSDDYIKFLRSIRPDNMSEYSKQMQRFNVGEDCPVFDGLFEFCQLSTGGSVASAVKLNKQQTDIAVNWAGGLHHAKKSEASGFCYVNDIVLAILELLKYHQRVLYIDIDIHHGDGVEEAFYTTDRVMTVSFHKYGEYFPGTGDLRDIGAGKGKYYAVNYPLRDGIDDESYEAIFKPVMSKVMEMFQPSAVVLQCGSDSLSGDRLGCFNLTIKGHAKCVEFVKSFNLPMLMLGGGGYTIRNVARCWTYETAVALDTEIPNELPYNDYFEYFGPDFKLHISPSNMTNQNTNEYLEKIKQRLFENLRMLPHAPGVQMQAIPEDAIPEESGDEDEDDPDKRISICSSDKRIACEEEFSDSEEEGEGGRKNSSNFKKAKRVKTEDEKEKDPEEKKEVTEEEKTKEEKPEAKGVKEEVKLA

Take `CC(C)N1CCN(Cc2ccc(-c3cn(Cc4ccc(-c5nnc(C(F)F)o5)cc4F)nn3)cc2)CC1` [Compound 4475, 2-(difluoromethyl)-5-(3-fluoro-4-((4-(4-((4-isopropylpiperazin-1-yl)methyl)phenyl)-1H-1,2,3-triazol-1-yl)methyl)phenyl)-1,3,4-oxadiazole]: the “HDAC6 selectivity (fold)” value on human recombinant HDAC6 (HDAC1 IC50 / HDAC6 IC50) is listed as 1269 fold. Also, the IC50 on human recombinant HDAC6 (setting [1]) is 0.0394 µM; at human recombinant HDAC1 (setting [2]) it was > 50 µM.
For `O=c1[nH]cccc1-c1cn(Cc2ccc(-c3nnc(C(F)F)o3)cn2)nn1` [Compound 3844, 3-(1-((5-(5-(difluoromethyl)-1,3,4-oxadiazol-2-yl)pyridin-2-yl)methyl)-1H-1,2,3-triazol-4-yl)pyridin-2(1H)-one], at human recombinant HDAC6 (HDAC1 IC50 / HDAC6 IC50), the “HDAC6 selectivity (fold)” value was found to be 2415 fold. In addition, the results for the IC50 on human recombinant HDAC6 (setting [1]) and on human recombinant HDAC1 (setting [2]) were 0.0207 µM and > 50 µM, respectively.
As for `Fc1cc(-c2nnc(C(F)F)o2)ccc1Cn1cc(-c2ccc(CN3CC[C@@H](F)C3)cn2)nn1` [Compound 18260, (R)-2-(difluoromethyl)-5-(3-fluoro-4-((4-(5-((3-fluoropyrrolidin-1-yl)methyl)pyridin-2-yl)-1H-1,2,3-triazol-1-yl)methyl)phenyl)-1,3,4-oxadiazole], at human recombinant HDAC6 (HDAC6 over HDAC1), the “HDAC6 selectivity (fold)” value is 775 fold. Also, the IC50 on human recombinant HDAC6 (setting [3]) was 0.0645 µM; at human recombinant HDAC1 (setting [4]), > 50 µM.
On to `CCC(F)(CC)CN1CCC(c2cn(Cc3ccc(-c4nnc(C(F)F)o4)cn3)nn2)CC1` [Compound 3896, 2-(difluoromethyl)-5-(6-((4-(1-(2-ethyl-2-fluorobutyl)piperidin-4-yl)-1H-1,2,3-triazol-1-yl)methyl)pyridin-3-yl)-1,3,4-oxadiazole], for which the “HDAC6 selectivity (fold)” value at human recombinant HDAC6 (HDAC1 IC50 / HDAC6 IC50) was 187 fold. The values for the IC50 at human recombinant HDAC6 (setting [1]) and on human recombinant HDAC1 (setting [2]) were 0.267 µM and > 50 µM, respectively.
Take `FC1CN(Cc2ccc(-c3cn(Cc4ccc(-c5nnc(C(F)F)o5)cc4)nn3)cc2)C1` [Compound 4549, 2-(difluoromethyl)-5-(4-((4-(4-((3-fluoroazetidin-1-yl)methyl)phenyl)-1H-1,2,3-triazol-1-yl)methyl)phenyl)-1,3,4-oxadiazole]: the “HDAC6 selectivity (fold)” value at human recombinant HDAC6 (HDAC6 over HDAC1) is given as 1213 fold. Besides, the results for the IC50 at human recombinant HDAC6 (setting [3]) and at human recombinant HDAC1 (setting [4]) were 0.0412 µM and > 50 µM, respectively.
As to `CN1CC(NC(=O)c2cccc(-c3cn(Cc4ccc(-c5nnc(C(F)F)o5)cn4)nn3)c2)C1` [Compound 4480, 3-(1-((5-(5-(difluoromethyl)-1,3,4-oxadiazol-2-yl)pyridin-2-yl)methyl)-1H-1,2,3-triazol-4-yl)-N-(1-methylazetidin-3-yl)benzamide], the “HDAC6 selectivity (fold)” value at human recombinant HDAC6 (HDAC1 IC50 / HDAC6 IC50) stood at 1388 fold. The IC50 was 0.036 µM on human recombinant HDAC6 (setting [1]) and > 50 µM on human recombinant HDAC1 (setting [2]).
In the case of `CC(C)N1Cc2cccc(-c3cn(Cc4ccc(-c5nnc(C(F)F)o5)cc4)nn3)c2C1` [Compound 4531, 2-(difluoromethyl)-5-(4-((4-(2-isopropylisoindolin-4-yl)-1H-1,2,3-triazol-1-yl)methyl)phenyl)-1,3,4-oxadiazole], the “HDAC6 selectivity (fold)” value at human recombinant HDAC6 (HDAC6 over HDAC1) came out at 412 fold. Moreover, the results for the IC50 on human recombinant HDAC6 (setting [3]) and on human recombinant HDAC1 (setting [4]) were 0.121 µM and > 50 µM, respectively.
In the case of `Cc1ccccc1-c1cn(Cc2ccc(-c3nnc(C(F)F)o3)cn2)nn1` [Compound 3860, 2-(difluoromethyl)-5-(6-((4-(o-tolyl)-1H-1,2,3-triazol-1-yl)methyl)pyridin-3-yl)-1,3,4-oxadiazole], at human recombinant HDAC6 (HDAC1 IC50 / HDAC6 IC50), the “HDAC6 selectivity (fold)” value is given as 391 fold. Besides, the IC50 on human recombinant HDAC6 (setting [1]) is 0.128 µM; at human recombinant HDAC1 (setting [2]) it was > 50 µM.
For `O=C(c1cccc(-c2cn(Cc3ccc(-c4nnc(C(F)F)o4)cn3)nn2)c1)N1CCCC1` [Compound 3829, (3-(1-((5-(5-(difluoromethyl)-1,3,4-oxadiazol-2-yl)pyridin-2-yl)methyl)-1H-1,2,3-triazol-4-yl)phenyl)(pyrrolidin-1-yl)methanone] the same measures were 1655 fold, 0.0302 µM and > 50 µM.
Take `CCCCc1cn(Cc2ccc(-c3nnc(C(F)F)o3)cn2)nn1` [Compound 3832, 2-(6-((4-butyl-1H-1,2,3-triazol-1-yl)methyl)pyridin-3-yl)-5-(difluoromethyl)-1,3,4-oxadiazole]: on human recombinant HDAC6 (HDAC1 IC50 / HDAC6 IC50), the “HDAC6 selectivity (fold)” value is 263 fold. In addition, the IC50 at human recombinant HDAC6 (setting [1]) was 0.19 µM; at human recombinant HDAC1 (setting [2]), > 50 µM.
Turning to `CC1CCN(Cc2c[nH]c3cc(-c4cn(Cc5ccc(-c6nnc(C(F)F)o6)cc5)nn4)ccc23)CC1` [Compound 4492, 2-(difluoromethyl)-5-(4-((4-(3-((4-methylpiperidin-1-yl)methyl)-1H-indol-6-yl)-1H-1,2,3-triazol-1-yl)methyl)phenyl)-1,3,4-oxadiazole], at human recombinant HDAC6 (HDAC1 IC50 / HDAC6 IC50), the “HDAC6 selectivity (fold)” value came out at 3333 fold. For the same compound, the IC50 on human recombinant HDAC6 (setting [1]) was 0.015 µM; on human recombinant HDAC1 (setting [2]), > 50 µM.
For `CC(C)N1CCN(Cc2cccc(-c3cn(Cc4ccc(-c5nnc(C(F)F)o5)cc4F)nn3)c2)CC1` [Compound 4408], on human recombinant HDAC6 (HDAC1 IC50 / HDAC6 IC50), the “HDAC6 selectivity (fold)” value is given as 970 fold. Besides, the values for the IC50 at human recombinant HDAC6 (setting [1]) and on human recombinant HDAC1 (setting [2]) were 0.0515 µM and > 50 µM, respectively.
Turning to `Fc1cc(-c2nnc(C(F)F)o2)ccc1Cn1cc(-c2ccc3cc[nH]c3c2)nn1` [Compound 4077, 2-(4-((4-(1H-indol-6-yl)-1H-1,2,3-triazol-1-yl)methyl)-3-fluorophenyl)-5-(difluoromethyl)-1,3,4-oxadiazole], the “HDAC6 selectivity (fold)” value at human recombinant HDAC6 (HDAC1 IC50 / HDAC6 IC50) is listed as 591 fold. Further, the figures for the IC50 on human recombinant HDAC6 (setting [1]) and at human recombinant HDAC1 (setting [2]) were 0.0845 µM and > 50 µM, respectively.
As to `CCCN1CCC(Nc2cccc(-c3cn(Cc4ccc(-c5nnc(C(F)F)o5)cc4F)nn3)c2F)CC1` [Compound 4434, N-(3-(1-(4-(5-(difluoromethyl)-1,3,4-oxadiazol-2-yl)-2-fluorobenzyl)-1H-1,2,3-triazol-4-yl)-2-fluorophenyl)-1-propylpiperidin-4-amine], the “HDAC6 selectivity (fold)” value at human recombinant HDAC6 (HDAC1 IC50 / HDAC6 IC50) amounted to 2392 fold. Also, the figures for the IC50 on human recombinant HDAC6 (setting [1]) and at human recombinant HDAC1 (setting [2]) were 0.0209 µM and > 50 µM, respectively.
As to `Fc1ccc(-c2cn(Cc3ccc(-c4nnc(C(F)F)o4)cn3)nn2)cc1` [Compound 3855], on human recombinant HDAC6 (HDAC1 IC50 / HDAC6 IC50), the “HDAC6 selectivity (fold)” value was 1818 fold. The IC50 at human recombinant HDAC6 (setting [1]) was 0.0275 µM; at human recombinant HDAC1 (setting [2]) it was > 50 µM.
As for `Fc1cc(-c2nnc(C(F)F)o2)ccc1Cn1cc(-c2cccc(C3CN(C4CCC4)C3)c2)nn1` [Compound 4507], on human recombinant HDAC6 (HDAC6 over HDAC1), the “HDAC6 selectivity (fold)” value is recorded as 1779 fold. The IC50 was 0.0281 µM on human recombinant HDAC6 (setting [3]) and > 50 µM at human recombinant HDAC1 (setting [4]).
Consider `CC(C)(F)C(=O)Nc1cccc(-c2cn(Cc3ccc(-c4nnc(C(F)F)o4)cc3)nn2)c1` [Compound 4328, N-(3-(1-(4-(5-(difluoromethyl)-1,3,4-oxadiazol-2-yl)benzyl)-1H-1,2,3-triazol-4-yl)phenyl)-2-fluoro-2-methylpropanamide], for which, on human recombinant HDAC6 (HDAC1 IC50 / HDAC6 IC50), the “HDAC6 selectivity (fold)” value is reported as 846 fold. Moreover, the IC50 was 0.0591 µM on human recombinant HDAC6 (setting [1]) and > 50 µM at human recombinant HDAC1 (setting [2]).
Take `Fc1cc(-c2nnc(C(F)F)o2)ccc1Cn1cc(-c2cccc(CN3CC(F)(F)C3)c2)nn1` [Compound 4418, 2-(4-((4-(3-((3,3-difluoroazetidin-1-yl)methyl)phenyl)-1H-1,2,3-triazol-1-yl)methyl)-3-fluorophenyl)-5-(difluoromethyl)-1,3,4-oxadiazole]: at human recombinant HDAC6 (HDAC1 IC50 / HDAC6 IC50), the “HDAC6 selectivity (fold)” value worked out at 837 fold. Moreover, the IC50 on human recombinant HDAC6 (setting [1]) was 0.0597 µM; at human recombinant HDAC1 (setting [2]) it was > 50 µM.
On to `CCC(=O)N1CCN(c2cccc(-c3cn(Cc4ccc(-c5nnc(C(F)F)o5)cc4F)nn3)c2)CC1` [Compound 4377, 1-(4-(3-(1-(4-(5-(difluoromethyl)-1,3,4-oxadiazol-2-yl)-2-fluorobenzyl)-1H-1,2,3-triazol-4-yl)phenyl)piperazin-1l-yl)propan-1l-one], for which the “HDAC6 selectivity (fold)” value on human recombinant HDAC6 (HDAC1 IC50 / HDAC6 IC50) was determined as 1039 fold. The results for the IC50 on human recombinant HDAC6 (setting [1]) and on human recombinant HDAC1 (setting [2]) were 0.0481 µM and > 50 µM, respectively.
Take `FC(F)c1nnc(-c2ccc(Cn3cc(-c4ccc5sccc5c4)nn3)nc2)o1` [Compound 4074, 2-(6-((4-(benzo[b]thiophen-5-yl)-1H-1,2,3-triazol-1-yl)methyl)pyridin-3-yl)-5-(difluoromethyl)-1,3,4-oxadiazole]: the “HDAC6 selectivity (fold)” value at human recombinant HDAC6 (HDAC1 IC50 / HDAC6 IC50) worked out at 602 fold. The IC50 on human recombinant HDAC6 (setting [1]) was 0.083 µM; at human recombinant HDAC1 (setting [2]) it was > 50 µM.
